IC50 data for 5 compounds are collected here from ChEMBL document CHEMBL3886469, “Pyrrolo pyrimidine derivatives” (2016).

As a reminder, the IC50 is the concentration that gives 50% inhibition.

For assay [1], the target named is T1, Tyrosine-protein kinase BTK (Homo sapiens, UniProt Q06187). Nature of the assay: Biochemical Enzyme Assay: The inhibitory activity of the present compounds against Btk was assessed in a biochemical enzyme assay. Assay plates in 384 well format were prepared with 8-point serial dilutions for the test compounds on a Thermo CatX workstation equipped with a Innovadyne Nanodrop Express. The assay plates were prepared by addition of 50 nl per well of compound solution in 90% DMSO. The kinase reactions were started by stepwise addition of 4.5 ul per well of peptide/ATP-solution (4 uM FITC-Ahx-[…]-NH2, 164 uM ATP) in kinase buffer (50 mM HEPES, pH 7.5, 1 mM DTT, 0.02% Tween20, 0.02% BSA, 0.6% DMSO, 10 mM beta-glycerophosphate, and 10 uM sodium orthovanadate, 18 mM MgCl2, 1 mM MnCl2) and 4.5 ul per well of enzyme solution (6.4 nM full-length human recombinant BTK) in kinase buffer. Kinase reactions were incubated at 30° C. for 60 minutes and subsequently terminated by addition of 16 ul per well of stop solution (100 mM HEPES pH 7.5, 5% DMSO, 0.1% Caliper coating reagent, 10 mM EDTA, and 0.015% Brij35). Kinase reactions were analyzed on a Caliper LC3000 workstation by separating phosphorylated and unphosphorylated peptides and kinase activities were calculated from the amounts of newly formed phospho-peptide. Inhibition data were calculated by comparison to control reactions without enzyme (100% inhibition) and without inhibitors (0% inhibition).

Assay [2] addresses T1, Tyrosine-protein kinase BTK. The assay can be described thus: Cellular Assay: Alternatively, the present compounds might also be assessed for their capacity to inhibit Btk-dependent FcG receptor-induced IL-8 secretion in human cells. The human myeloid leukemia THP1 cell line (ATCC TIB202) was grown in RPMI 1640 medium supplemented with 10% FCS and 15 nM 1, 25-dihydroxy Vitamin D3 during 4 days before use to induced myeloid differentiation. A sufficient number of tissue-culture grade 384-well plates was coated with human IgG of unknown specificity by incubating overnight at 4° C. with 40 ul/well of a 50 ug/ml IgG solution in PBS. On the day of the experiment, plates were washed 5 times with 80 ul water on a Molecular Devices Aquamax DW4 plate washer. Solutions of the test compounds in 90% DMSO were added to each well on a Hamilton Microlab Star liquid handling station to 40 ul/well tissue culture medium and the total DMSO concentration was adjusted to 0.1%. Differentiated THP1 cells were then added in 40 ul/well to reach a final density of 5'000 cells/well in 80 ul culture medium. After 24 hours, IL-8 secretion was measured in the supernatant by the IL-8 HTRF assay following the protocol of the vendor (CisBio international). The class given is cell-based, THP-1. (Time-resolved FRET reads energy transfer from a long-lived donor to a nearby acceptor.)

T1 sequence (Q06187 whole entry): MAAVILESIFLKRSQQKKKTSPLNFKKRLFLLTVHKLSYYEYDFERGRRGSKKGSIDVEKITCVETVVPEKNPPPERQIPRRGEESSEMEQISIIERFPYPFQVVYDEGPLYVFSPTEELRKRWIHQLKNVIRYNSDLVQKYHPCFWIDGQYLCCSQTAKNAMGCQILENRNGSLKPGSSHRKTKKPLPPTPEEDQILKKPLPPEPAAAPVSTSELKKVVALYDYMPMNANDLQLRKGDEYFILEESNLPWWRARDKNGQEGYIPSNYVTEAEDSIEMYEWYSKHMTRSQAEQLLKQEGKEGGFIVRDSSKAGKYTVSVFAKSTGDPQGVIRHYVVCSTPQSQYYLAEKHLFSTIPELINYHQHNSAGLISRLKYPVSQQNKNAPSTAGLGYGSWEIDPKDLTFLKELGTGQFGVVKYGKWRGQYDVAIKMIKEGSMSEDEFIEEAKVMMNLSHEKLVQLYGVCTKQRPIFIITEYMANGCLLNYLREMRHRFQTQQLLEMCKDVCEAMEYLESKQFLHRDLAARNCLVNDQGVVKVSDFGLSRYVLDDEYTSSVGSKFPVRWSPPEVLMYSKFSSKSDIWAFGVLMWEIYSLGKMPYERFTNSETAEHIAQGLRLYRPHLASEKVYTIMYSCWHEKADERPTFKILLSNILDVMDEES

Turning to `Cc1c(NC(=O)c2ccc(C(C)(C)C)cc2)cc(F)cc1-c1ncnc2[nH]c(C3=CCSCC3)cc12`, the IC50 was 23 nM in assay [1] and 94 nM in assay [2].

For the compound `Cc1c(NC(=O)c2ccc(C(C)(C)C)cc2)cc(F)cc1-c1ncnc2[nH]c(C3=CCC4(CC3)OCCO4)cc12`, the IC50 in assay [1] was 110 nM. Regarding `Cc1c(NC(=O)c2ccc(C(C)(C)O)cc2F)cc(F)cc1-c1ncnc2[nH]c(C3=CCN(C(=O)N(C)C)CC3)cc12`, the IC50 in assay [1] was 13 nM. In the case of `Cc1c(NC(=O)c2ccc(C3CC3)cc2)cc(F)cc1-c1ncnc2[nH]c(C3=CCN(C(=O)CC#N)CC3)cc12`, the IC50 in assay [1] was 4 nM.

As to `C=C(C)c1ccc(C(=O)Nc2cc(F)cc(-c3ncnc4[nH]c(C5=CCN(C(=O)N(C)C)CC5)cc34)c2C)cc1`, the IC50 in assay [1] is 3 nM.
